Test systems include NCI-H460; SK-MEL-28; SK-OV-3; TK-10; RXF 393; UACC-62; HOP-92; SW-620; NCI-H23; EKVX; HL-60; HCT-116; KM12; HCC 2998; NCI-H522; SK-MEL-2; SR.
Assay in all cases: growth of human tumour cells (NCI), 48 h

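1) Cells in 96-well plates. 2) Compound, 48 h, 5 concentrations. 3) Linear interpolation between surrounding doses. 4) Unreached endpoint = highest concentration. GI50 = concentration required for 50% inhibition of growth.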 Calls of active or inactive are those of the source. No stated cut-off is given here; in the data, active = GI50 up to about 1.1 µM and inactive = higher.

As for `CC(C)(C)c1cc(C2c3cc4c(cc3OC(O)(CO)C2C(=O)O)OCO4)cc(C(C)(C)C)c1O.CC(C)(C)c1cc(C2c3cc4c(cc3OC3(O)COC(=O)C23)OCO4)cc(C(C)(C)C)c1O` (stereo not given), the GI50 is 14.7 µM (inactive) with NCI-H460; 11.3 µM (inactive) in the test on SK-MEL-28; 27.3 µM (inactive) in the test on SK-OV-3; 22.7 µM (inactive) in the test on TK-10; 11.9 µM (inactive) in the test on RXF 393; 5 µM (inactive) in the test with UACC-62. The GI50 with HOP-92 is 9.82 µM (inactive); in the test with SW-620 it was 14.4 µM (inactive); in the test on NCI-H23, 9.55 µM (inactive); in the test on EKVX it was 22.5 µM (inactive); in the test with HL-60 it was 7.73 µM (inactive); in the test on HCT-116, 8.47 µM (inactive).
As for `Cc1ccccc1NC(=O)c1ccc([N+](=O)[O-])cc1`, the GI50 in the test on NCI-H460 was > 100 µM (inactive); in the test with SK-MEL-28, > 100 µM (inactive); in the test on SK-OV-3 it was > 100 µM (inactive); in the test with TK-10 it was 97.3 µM (inactive); in the test on RXF 393, 15.8 µM (inactive); in the test with UACC-62 it was > 100 µM (inactive). Moreover, the GI50 in the test with KM12 is 67.5 µM (inactive); with HCC 2998, > 100 µM (inactive); in the test on HOP-92, > 100 µM (inactive); in the test with SW-620, > 100 µM (inactive); in the test with NCI-H522, 28 µM (inactive); in the test on NCI-H23, > 100 µM (inactive). The GI50 with EKVX was > 100 µM (inactive); in the test on HL-60, 46.8 µM (inactive); in the test on HCT-116 it was > 100 µM (inactive).
As to `COc1cc(Nc2nc3cc(C(F)(F)F)ccc3nc2C)cc(OC)c1OC`, the GI50 is 11 µM (inactive) in the test with SK-MEL-2; 4.11 µM (inactive) in the test on NCI-H460; 12.5 µM (inactive) in the test on SK-MEL-28; 14.4 µM (inactive) in the test on SK-OV-3; 10.7 µM (inactive) in the test with TK-10; 5.46 µM (inactive) in the test with RXF 393. Further, the GI50 was 3.94 µM (inactive) in the test with UACC-62; 6.32 µM (inactive) in the test with KM12; 3.61 µM (inactive) in the test with HCC 2998; 0.246 µM (active) in the test on HOP-92; 13.3 µM (inactive) with SW-620; 12.3 µM (inactive) in the test on NCI-H522. Also, the GI50 was 10.7 µM (inactive) with NCI-H23, 16.6 µM (inactive) in the test on EKVX, 6.15 µM (inactive) in the test with SR and 8.81 µM (inactive) in the test with HCT-116.
Take `Cc1oc2c(C)c3oc(=O)cc(C)c3cc2c1CN`: the GI50 in the test on SK-MEL-2 was 46.1 µM (inactive); in the test on NCI-H460, 27.9 µM (inactive); in the test on SK-MEL-28 it was 71 µM (inactive); in the test with SK-OV-3 it was 23.7 µM (inactive); in the test on TK-10, 27.8 µM (inactive); with RXF 393, 15.9 µM (inactive). For the same compound, the GI50 was 92.3 µM (inactive) with UACC-62; 49.5 µM (inactive) in the test on KM12; 28.1 µM (inactive) in the test on HCC 2998; 19.5 µM (inactive) with SW-620; 42.4 µM (inactive) in the test on NCI-H522; 45.8 µM (inactive) in the test with NCI-H23. Also, the GI50 in the test on EKVX is 42.6 µM (inactive); with HL-60, 39 µM (inactive); with HCT-116 it was 22.8 µM (inactive).
Regarding `O=C1C(=O)N(C(=O)c2ccc(Cl)c(Cl)c2)c2ccc(Cl)cc21`, the GI50 in the test with NCI-H460 is 89.7 µM (inactive); with SK-MEL-28, > 100 µM (inactive); with SK-OV-3 it was > 100 µM (inactive); in the test on TK-10, > 100 µM (inactive); in the test with RXF 393 it was > 100 µM (inactive); in the test on UACC-62, > 100 µM (inactive). The GI50 in the test with KM12 was > 100 µM (inactive); in the test with SW-620, 92 µM (inactive); with NCI-H23, > 100 µM (inactive); in the test on EKVX, 74 µM (inactive); with HL-60, 20.3 µM (inactive); in the test with SR, 89.7 µM (inactive).
For `O=C(c1ccco1)N(C(=S)N1CCN(c2ccccc2)CC1)C1CCCCC1`, the GI50 with SK-MEL-2 was > 100 µM (inactive); with NCI-H460 it was 76 µM (inactive); with SK-MEL-28, > 10 µM (inactive); in the test with SK-OV-3, > 100 µM (inactive); with TK-10 it was > 100 µM (inactive); in the test on RXF 393, 52.6 µM (inactive). For the same compound, the GI50 in the test on UACC-62, in the test on KM12, in the test on HOP-92, in the test on SW-620, with NCI-H522 and in the test with NCI-H23 was > 100 µM (inactive) in each case. Further, the values for the GI50 in the test on HL-60, in the test on SR and in the test with HCT-116 were > 100 µM (inactive), > 100 µM (inactive) and 62.8 µM (inactive), respectively.
For `COc1cc(-c2ccccc2)c(OC)cc1CCl`, the GI50 with SK-MEL-2, with NCI-H460, with SK-OV-3, in the test on TK-10, in the test with RXF 393 and in the test on UACC-62 was > 100 µM (inactive) each time. Further, the GI50 with KM12, in the test on HCC 2998, in the test on SW-620, with NCI-H522, in the test with NCI-H23 and with EKVX was > 100 µM (inactive) throughout. The GI50 in the test on HL-60 and with HCT-116 was > 100 µM (inactive) each time.
With `OC(CC1SCCCS1)c1ccccc1` (stereo not given), the GI50 in the test on SK-MEL-2, with NCI-H460, with SK-OV-3, in the test with TK-10, with RXF 393 and in the test on UACC-62 was > 100 µM (inactive) in each case. For the same compound, the GI50 in the test on KM12 is > 100 µM (inactive); in the test with HCC 2998, > 100 µM (inactive); in the test on SW-620, > 100 µM (inactive); with NCI-H522 it was 61.7 µM (inactive); in the test on NCI-H23 it was > 100 µM (inactive); in the test on EKVX it was > 100 µM (inactive). In addition, the GI50 in the test on HL-60 and in the test on HCT-116 was > 100 µM (inactive) in each case.
As to `O=C(Nc1ccc([N+](=O)[O-])cc1C(=O)O)c1ccc([N+](=O)[O-])cc1`, the GI50 in the test on SK-MEL-2 was 19.2 µM (inactive); in the test on NCI-H460 it was 21 µM (inactive); in the test on SK-MEL-28 it was 31.1 µM (inactive); in the test with SK-OV-3, 79.3 µM (inactive); in the test with TK-10 it was 70.3 µM (inactive); with UACC-62 it was 42.8 µM (inactive). Also, the GI50 is 24.8 µM (inactive) with KM12; 16 µM (inactive) in the test on HCC 2998; 10.8 µM (inactive) in the test on HOP-92; 46.3 µM (inactive) in the test on SW-620; > 100 µM (inactive) with EKVX; 17.1 µM (inactive) in the test with HL-60. The GI50 in the test on HCT-116 is 15.5 µM (inactive).
For the compound `[N-]=[N+]=NC1(Cc2ccccc2)C(=O)Nc2ccccc2C1=O` (stereo not given), the GI50 with SK-MEL-2, with NCI-H460, with SK-MEL-28, in the test with SK-OV-3, in the test with TK-10 and in the test on UACC-62 was > 100 µM (inactive) in each case. Further, the GI50 was > 100 µM (inactive) in the test with KM12; > 100 µM (inactive) with HCC 2998; > 100 µM (inactive) in the test with HOP-92; > 100 µM (inactive) with SW-620; 87.1 µM (inactive) in the test with NCI-H522; > 100 µM (inactive) with NCI-H23. Besides, the GI50 with EKVX, in the test with HL-60, with SR and in the test with HCT-116 was > 100 µM (inactive) each time.
For the compound `O=[PH](O)c1cc2ccccc2c2ccccc12`, the GI50 with NCI-H460, with SK-MEL-28, in the test with SK-OV-3, in the test with TK-10, in the test on RXF 393 and with UACC-62 was > 100 µM (inactive) throughout. The GI50 with KM12, in the test on HCC 2998, with SW-620, in the test on NCI-H522, in the test with NCI-H23 and in the test on EKVX was > 100 µM (inactive) each time. For the same compound, the GI50 with HL-60 and in the test on HCT-116 was > 100 µM (inactive) each time.
On to `CC(=O)OC(CC1(C)C(C)CCC23COC(=O)C2=CCCC31)c1ccoc1` (stereo not given), for which the GI50 in the test on SK-MEL-2 was 23.4 µM (inactive); with NCI-H460 it was 40.4 µM (inactive); with SK-MEL-28 it was 17.7 µM (inactive); with SK-OV-3, 40.8 µM (inactive); in the test on RXF 393 it was 14.2 µM (inactive); in the test with UACC-62, 23.1 µM (inactive). In addition, the GI50 in the test on KM12 is 26.2 µM (inactive); in the test on HCC 2998 it was 22.3 µM (inactive); with HOP-92, 26.2 µM (inactive); with SW-620, 24.9 µM (inactive); in the test on NCI-H522, 18.5 µM (inactive); in the test with NCI-H23 it was 19 µM (inactive). Moreover, the GI50 with EKVX was 30.5 µM (inactive); in the test with HCT-116, 20.5 µM (inactive).
Take `C=C1C2CC(OC(C)=O)C3(C)C(c4ccoc4)OC(=O)[C@@H](O)[C@]13OC1C[C@H](OC(C)=O)C(C)(C)[C@H](CC(=O)OC)[C@]12C` (stereo not given in full): the GI50 in the test on SK-MEL-2, in the test with NCI-H460, with SK-MEL-28, in the test with SK-OV-3, in the test with TK-10 and in the test on UACC-62 was > 100 µM (inactive) each time. The GI50 in the test on KM12 was > 100 µM (inactive); with HCC 2998 it was > 100 µM (inactive); in the test with HOP-92 it was 30.3 µM (inactive); in the test with SW-620, > 100 µM (inactive); in the test with NCI-H23 it was > 100 µM (inactive); with EKVX it was > 100 µM (inactive). The results for the GI50 in the test with HL-60 and in the test with HCT-116 were 50.6 µM (inactive) and > 100 µM (inactive), respectively.
Consider `N#C/C(=C\c1ccc(O)c(O)c1)C(N)=O`, for which the GI50 was > 100 µM (inactive) with SK-MEL-2; 38 µM (inactive) with NCI-H460; 41 µM (inactive) in the test on SK-MEL-28; 71.4 µM (inactive) in the test on SK-OV-3; 77.6 µM (inactive) in the test with TK-10; 19.7 µM (inactive) in the test with RXF 393. The GI50 was 52.7 µM (inactive) in the test on UACC-62; 33.1 µM (inactive) in the test on KM12; 53.1 µM (inactive) in the test with HCC 2998; 49.9 µM (inactive) in the test on HOP-92; 43.9 µM (inactive) in the test on SW-620; 9.2 µM (inactive) with NCI-H522. Moreover, the GI50 is 34 µM (inactive) with NCI-H23, 53 µM (inactive) in the test with EKVX, 10.1 µM (inactive) in the test on HL-60 and 23 µM (inactive) in the test on HCT-116.
